Data: patent US20050256073A1, “Immunostimulatory viral RNA oligonucleotides” (Coley Pharmaceutical Group, Inc., priority 2004, published 2005)
Several values for one entry are separate records, joined by “and”; a condition that tells them apart may be missing. Equal entries are not always repeated. Where two headings read alike, the source gives them in different places.

Tests used:
Assay type in all cases: cell-based
human PBMC [1] = details: for EC50: read-out: IFN-α production EC50
human PBMC [2] = details: for EC50: read-out: TNF production EC50
human CD14+ cells = assay: CD80 expression on human CD14+ cells (FACS)
[3] = tested on: human CD19+ cells (B cells); assay: CD80 expression on human CD19+ cells (FACS)
human PBMC [4] = tested on: human PBMC
human PBMC [5] = details: for EC50: read-out: IFN-γ production EC50
human TLR9 = molecular target: T1, human TLR9 (Homo sapiens, UniProt Q9NR96); assay: NF-κB-luciferase readout in HEK293 cells stably transfected with human TLR9
T1 construct: expressed in transfected cells; host or cells: HEK293 cells, stably transfected, with NF-κB-luciferase reporter construct
T1 sequence (Q9NR96 26-1032): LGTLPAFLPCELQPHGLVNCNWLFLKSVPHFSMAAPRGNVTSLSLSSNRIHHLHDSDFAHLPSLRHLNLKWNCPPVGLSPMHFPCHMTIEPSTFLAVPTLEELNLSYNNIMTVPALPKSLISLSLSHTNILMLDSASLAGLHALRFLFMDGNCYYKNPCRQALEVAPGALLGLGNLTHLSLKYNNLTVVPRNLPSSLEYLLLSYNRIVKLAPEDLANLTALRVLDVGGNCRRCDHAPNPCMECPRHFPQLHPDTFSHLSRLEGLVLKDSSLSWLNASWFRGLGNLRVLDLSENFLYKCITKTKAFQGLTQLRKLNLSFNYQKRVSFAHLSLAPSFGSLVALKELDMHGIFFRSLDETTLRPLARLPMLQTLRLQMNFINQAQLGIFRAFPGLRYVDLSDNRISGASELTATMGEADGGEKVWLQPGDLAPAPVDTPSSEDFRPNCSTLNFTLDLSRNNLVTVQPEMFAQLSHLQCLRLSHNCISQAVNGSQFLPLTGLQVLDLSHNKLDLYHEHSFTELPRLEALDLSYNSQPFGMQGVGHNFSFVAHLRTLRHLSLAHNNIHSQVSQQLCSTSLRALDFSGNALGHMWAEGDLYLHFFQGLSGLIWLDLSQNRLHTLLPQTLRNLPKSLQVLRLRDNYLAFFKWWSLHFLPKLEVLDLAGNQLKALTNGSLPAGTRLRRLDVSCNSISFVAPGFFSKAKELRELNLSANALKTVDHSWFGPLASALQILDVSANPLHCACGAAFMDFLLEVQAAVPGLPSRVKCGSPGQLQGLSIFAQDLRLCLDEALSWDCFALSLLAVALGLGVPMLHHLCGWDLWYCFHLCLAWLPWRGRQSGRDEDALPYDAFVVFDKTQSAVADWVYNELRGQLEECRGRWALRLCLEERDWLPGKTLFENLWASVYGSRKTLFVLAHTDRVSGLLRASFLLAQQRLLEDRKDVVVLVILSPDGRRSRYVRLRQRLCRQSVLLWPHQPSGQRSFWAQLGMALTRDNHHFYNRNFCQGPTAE
Procedure: (§1) Emitted light varied in direct proportion to NF-κB activation.
(§2) The effect of immunostimulatory oligonucleotide was assessed by titrating the amount or concentration of oligonucleotide concentration in a given experiment. The effect of immunostimulatory oligonucleotide concentration was expressed in terms of EC50 (concentration at which immunostimulatory oligonucleotide was 50 percent effective compared to maximum effect). The potency of a given immunostimulatory oligonucleotide was expressed as maximum stimulation index (SI max; the maximum fold increase in signal over that of untreated control) or maximum activity.
(§3) Stimulation and measurement of signal transduction in HEK293 cells stably transfected with either human TLR8 or human TLR9 and an NF-κB-luciferase reporter construct was performed essentially as described in Example 1. […] Results are expressed in terms of EC50 in μM and stimulation index (SI)=fold induction of NF-κB-luciferase activity in ligand-pulsed cells.

human TLR8 = molecular target: T2, human TLR8 (Homo sapiens, UniProt Q9NR97); assay: NF-κB-luciferase readout in HEK293 cells stably transfected with human TLR8
T2 construct: expressed in transfected cells; host or cells: HEK293 cells, stably transfected, with NF-κB-luciferase reporter construct
T2 sequence (Q9NR97 27-1041): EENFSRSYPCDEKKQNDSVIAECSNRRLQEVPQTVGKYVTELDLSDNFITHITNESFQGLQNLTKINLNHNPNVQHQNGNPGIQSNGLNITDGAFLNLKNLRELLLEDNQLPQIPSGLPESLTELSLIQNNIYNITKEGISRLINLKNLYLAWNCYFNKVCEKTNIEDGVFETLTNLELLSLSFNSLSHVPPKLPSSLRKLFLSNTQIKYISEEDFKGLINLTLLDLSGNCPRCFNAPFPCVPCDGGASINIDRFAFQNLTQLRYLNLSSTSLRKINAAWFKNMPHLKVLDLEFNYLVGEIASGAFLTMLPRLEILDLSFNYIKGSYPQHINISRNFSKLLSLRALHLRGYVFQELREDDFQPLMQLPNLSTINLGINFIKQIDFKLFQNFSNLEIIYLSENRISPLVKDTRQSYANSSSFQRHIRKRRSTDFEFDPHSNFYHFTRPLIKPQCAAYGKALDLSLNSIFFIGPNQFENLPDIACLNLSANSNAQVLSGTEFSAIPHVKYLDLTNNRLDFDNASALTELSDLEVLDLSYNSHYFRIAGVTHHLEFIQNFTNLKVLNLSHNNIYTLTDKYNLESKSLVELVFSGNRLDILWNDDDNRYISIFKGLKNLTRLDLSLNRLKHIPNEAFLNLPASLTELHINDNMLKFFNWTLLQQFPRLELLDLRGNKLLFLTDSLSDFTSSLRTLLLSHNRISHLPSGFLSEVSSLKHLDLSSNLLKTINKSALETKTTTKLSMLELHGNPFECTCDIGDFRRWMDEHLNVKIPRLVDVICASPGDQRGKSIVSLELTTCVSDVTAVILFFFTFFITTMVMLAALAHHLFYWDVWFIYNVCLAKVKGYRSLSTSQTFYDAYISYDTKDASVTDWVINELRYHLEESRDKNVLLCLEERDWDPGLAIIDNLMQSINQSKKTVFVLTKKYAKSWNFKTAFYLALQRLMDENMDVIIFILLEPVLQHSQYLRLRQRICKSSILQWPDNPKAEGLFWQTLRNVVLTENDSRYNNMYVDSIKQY
Procedure: as §1, §2, §3

| Substance | IFN-α production max activity (human PBMC [1]) | EC50 (human PBMC [1]) | TNF production max activity (human PBMC [2]) | EC50 (human PBMC [2]) | IFN-γ production max activity (human PBMC [5]) | other results |
| --- | --- | --- | --- | --- | --- | --- |
| GCCACCGAGCCGAUUGUACC [ORN 22] | 2417 pg/mL | 1110 nM | 23833 pg/mL | 244 nM | – | – |
| UUGUUGUUUUGUUGUUUUGUUGUU [ORN 15] | 2500 pg/mL | 5 nM | 60000 pg/mL | 40 nM | – | – |
| AUAAUUGACCUGCUUUCGCU [ORN 4] | – | – | 5750 pg/mL and 8000 pg/mL and 5000 pg/mL | 412 nM and 400 nM and 559 nM and 512 nM and 471 nM | – | induction of co-stimulatory molecule CD80 on CD14+ cells (human CD14+ cells): induce; induction of co-stimulatory molecule CD80 on CD19+ cells (B cells) [3]: induce; profile of immunostimulation (cytokines induced) (human PBMC [4]): very broad, including induction of TNF-α, IL-6, IL-12 p40, IFN-α, and IFN-γ; EC50 (human PBMC [5]): 637 nM and 490 nM and 564 nM |
| UGUUUUUUCUCUUGUUUGGU [ORN 3] | – | – | – | 419 nM and 421 nM and 470 nM and 337 nM and 412 nM | 60000 pg/mL and 70000 pg/mL and 65000 pg/mL | induction of co-stimulatory molecule CD80 on CD14+ cells (human CD14+ cells): induce; induction of co-stimulatory molecule CD80 on CD19+ cells (B cells) [3]: induce; EC50 (human PBMC [5]): 528 nM and 606 nM and 567 nM |
| GGGGAUGAUGUUGUGGGGGGG [ORN 19] | 2867 pg/mL | 129 nM | 37667 pg/mL | 415 nM | – | – |
| GCCACCGAGCCGAUUUUACC [ORN 23] | 2333 pg/mL | 41 nM | 25500 pg/mL | 228 nM | – | – |
| CUUACCCAACUUUGUUUGGU [ORN 2] | – | 34 nM and 68 nM and 60 nM and 38 nM and 50 nM | 9500 pg/mL and 8000 pg/mL and 13000 pg/mL and 10000 pg/mL and 7000 pg/mL | – | 50000 pg/mL and 40000 pg/mL and 45000 pg/mL | EC50 (human PBMC [5]): 514 nM and 529 nM and 522 nM |
| AGCGAAAGCAGGUCAAUUAU [ORN 5, reference compound] | 0 pg/mL | – | 0 pg/mL | – | 0 pg/mL | – |
| UUGAUCUGGUUGUUAAGCGU [ORN 6] | – | – | 8750 pg/mL and 10000 pg/mL and 7000 pg/mL and 8000 pg/mL | 462 nM and 409 nM and 604 nM and 498 nM and 493 nM | 60000 pg/mL and 30000 pg/mL and 45000 pg/mL | EC50 (human PBMC [5]): 635 nM and 586 nM and 611 nM |
| GGGGAUGAUGTUGTGGGGGGG [ORN 20] | 0 pg/mL | – | 0 pg/mL | – | – | – |
| TUGTUGTTTTUGGUGGUUGUUG [ORN 18] | 2617 pg/mL | 79.5 nM | 61667 pg/mL | 200 nM | – | – |
| AAUGGUUUGUUUGUCUUCGU [ORN 7] | – | – | 7500 pg/mL and 10000 pg/mL and 7000 pg/mL and 8000 pg/mL and 5000 pg/mL | 357 nM and 325 nM and 544 nM and 468 nM and 424 nM | 50000 pg/mL and 80000 pg/mL and 65000 pg/mL | EC50 (human PBMC [5]): 490 nM and 642 nM and 566 nM |
| dTdCdGdTdCdGdTdTdT 2′-5′ (GUUGUGU) dAdAdT [ORN 13] | – | 15 nM and 25 nM | 0 pg/mL | – | 0 pg/mL | TLR9 stimulation (in words) (human TLR9): maintained; EC50 (human TLR9; Table 11, HEK293, NF-κB-luciferase): 110 nM; TLR8 stimulation (in words) (human TLR8): lost |
| dNdNdNdNdNdNUUGUGdNdNdNdNdNdNdN [ORN 31] | 766.7 pg/mL | 3870 nM | 18000 pg/mL | 4890 nM | – | – |
| TUGTUGTTTTGTUGTTTTGTUGTT [ORN 16] | 2267 pg/mL | 1100 nM | 56667 pg/mL | 234 nM | – | – |
| TCGTCGTTTTCGGCGCGCGCCG [CpG ODN 2395, reference compound] | – | – | – | – | – | induction of co-stimulatory molecule CD80 on CD19+ cells (B cells) [3]: induce |
| dNdNdNdNdNdNUUGdNdNdNdNdNdNdNdNdN [ORN 33] | 0 pg/mL | – | 0 pg/mL | – | – | – |
| UUGUUGUUUUUGGUGGUUGUUG [ORN 17] | 3000 pg/mL | 15.2 nM | 70000 pg/mL | 57.5 nM | – | – |
| UCGUCGUUUUGUCGUUUUGUCGUU [ORN 14] | 2783 pg/mL | 37.3 nM | 53833 pg/mL | 78 nM | – | – |
| dNdNdNdNdNdNUUGUdNdNdNdNdNdNdNdN [ORN 32] | 666.7 pg/mL | 4560 nM | 30000 pg/mL | 7980 nM | – | – |
| GCCACCGAGCCGAAGGCAAC [ORN 21, reference compound] | 0 pg/mL | – | 0 pg/mL | – | – | immunostimulatory activity (in words) (human PBMC [4]): no immunostimulatory activity |
| UUGUACGCAUUUUUUCGCGU [ORN 1] | – | – | 8500 pg/mL and 8000 pg/mL and 10000 pg/mL | 494 nM and 417 nM and 473 nM and 529 nM and 478 nM | 50000 pg/mL and 60000 pg/mL and 55000 pg/mL | EC50 (human PBMC [5]): 592 nM and 517 nM and 555 nM |
| dNdNdNdNdNdNdNUGdNdNdNdNdNdNdNdNdN [ORN 34] | 0 pg/mL | – | 0 pg/mL | – | – | – |
